Measurements from US9255132B2, “Angiopoietin derived peptides” (Compugen Ltd., priority 2008, dated 2016).
Residues, ends and D or L forms follow the SMILES beside them.

Test system: avian chorioallantoic membrane (CAM)
Assay type: in vivo, Leghorn fertilized eggs
Conditions: for inhibition of vessel length: peptide 0.5 and 5 nmol/CAM, 48 h after treatment, vs vehicle control
Procedure: CGEN-G6 [SEQ ID NO: 6], CGEN-F9 [SEQ ID NO: 7], CGEN-F12 [SEQ ID NO: 8], CGEN-C6 [SEQ ID NO: 9], CGEN-A11 [SEQ ID NO: 10], and CGEN-G2 [SEQ ID NO: 11], were analyzed for their ability to affect angiogenesis using the in ovo avian chorioallantoic membrane (CAM) model of angiogenesis, which is widely used as a model to examine compounds affecting angiogenesis (Richardson and Singh 2003, Curr Drug Targets Cardiovasc Haematol Disord., 3(2):155-85). Two positive controls were used: fumagillin as a general anti-angiogenic compound, and Tie2 neutralizing antibody as anti-angiogenic inhibitor of the Ang/Tie2 pathway. Leghorn fertilized eggs were incubated for 4 days at 37° C., when a window was opened on the egg's shell, exposing the CAM. Two different doses of peptides (0.5 and 5 nmol/CAM), Tie-2 neutralizing antibody (R&D Systems, Cat#AF313, 10 μg/ml; 0.4 μg/CAM) or fumagillin (Tocris Bioscience, Cat #1768; 5 μg/CAM) were applied in a 40 μl volume inside an area of 1 cm^2 (restricted by a plastic ring) of the CAM on day 9 of embryo development. The appropriate vehicle controls were also tested. Forty-eight hours after treatment and subsequent incubation at 37° C., CAMs were fixed in situ, excised from the eggs, placed on slides and left to air-dry. Pictures were taken through a stereoscope equipped with a digital camera and the total length of the vessels was measured using image analysis software (NIH Image). For each group a total of 17-24 eggs from three different experiments were used. Data are presented as means±SEM and expressed as % of vehicle control. Statistical analysis (ANOVA followed by Dunnett's post-hoc test) was performed using Graph Pad.
FIG. 6 depict results obtained on vessel length with peptides CGEN-G6 [SEQ ID NO: 6], CGEN-F9 [SEQ ID NO: 7], CGEN-F12 [SEQ ID NO: 8], CGEN-C6 [SEQ ID NO: 9], CGEN-A11 [SEQ ID NO: 10], and CGEN-G2 [SEQ ID NO: 11], compared to Tie2 neutralizing antibody (Ab) and the anti-angiogenic compound fumagillin. Neutralizing Tie2 Ab blocked vessel length by 36%, while the angiogenesis inhibitor fumagillin blocked vessel length by 32%.

Compound | inhibition of vessel length, rank among peptides (5 nmole) | inhibition of vessel length
CC(=O)N[C@@H](CCC(=O)O)C(=O)N[C@H](C(=O)N[C@@H](Cc1ccccc1)C(=O)N[C@@H](CC(C)C)C(=O)N[C@@H](CO)C(=O)N[C@H](C(=O)N[C@@H](CC(N)=O)C(=O)N[C@@H](CCCCN)C(=O)N[C@@H](CC(C)C)C(=O)N[C@@H](CCC(=O)O)C(=O)N[C@@H](CC(N)=O)C(=O)N[C@@H](CCC(N)=O)C(N)=O)[C@@H](C)O)[C@@H](C)O [CGEN-A11, ETFLSTNKLENQ] (Ac-ETFLSTNKLENQ-NH2) | greatest effect | –
CC[C@H](C)[C@H](NC(=O)[C@H](C)NC(=O)[C@H](CCCNC(=N)N)NC(=O)[C@H](CCC(=O)O)NC(=O)[C@H](CC(C)C)NC(=O)[C@H](CCCCN)NC(=O)[C@H](CCCCN)NC(=O)[C@H](CC(C)C)NC(=O)[C@H](Cc1c[nH]c2ccccc12)NC(=O)[C@H](CCC(N)=O)NC(=O)[C@@H](NC(=O)[C@H](CC(N)=O)NC(=O)[C@H](CC(N)=O)NC(=O)[C@H](CCC(N)=O)NC(=O)[C@H](CC(C)C)NC(=O)[C@H](C)NC(=O)[C@H](CCC(N)=O)NC(=O)[C@H](CCC(=O)O)NC(=O)[C@H](CC(C)C)NC(=O)[C@H](CCC(N)=O)NC(=O)[C@H](CCCCN)NC(=O)[C@@H](NC(=O)[C@H](CCC(N)=O)NC(=O)[C@H](CCC(N)=O)NC(=O)[C@@H](NC(C)=O)[C@@H](C)O)C(C)C)[C@@H](C)O)C(=O)N[C@@H](CCCCN)C(=O)N[C@H](C(=O)N[C@H](C(=O)N[C@@H](CC(C)C)C(N)=O)[C@@H](C)CC)[C@@H](C)O [CGEN-G2] (Ac-TQQVKQLEQALQNNTQWLKKLERAIKTIL-NH2) | – | did not inhibit angiogenesis
CSCC[C@H](NC(=O)[C@H](CC(C)C)NC(=O)[C@H](CC(=O)O)NC(C)=O)C(=O)N[C@@H](CCC(=O)O)C(=O)N[C@H](C(=O)N[C@H](C(=O)N[C@@H](CC(N)=O)C(=O)N[C@@H](CC(N)=O)C(=O)N[C@@H](CC(C)C)C(=O)N[C@@H](CC(C)C)C(=O)N[C@H](C(=O)N[C@@H](CCSC)C(=O)N[C@@H](CCSC)C(=O)N[C@@H](CO)C(=O)N[C@H](C(=O)N[C@@H](CO)C(=O)N[C@@H](CC(N)=O)C(=O)N[C@@H](CO)C(=O)N[C@@H](C)C(=O)N[C@@H](CCCCN)C(=O)N[C@@H](CC(=O)O)C(N)=O)[C@@H](C)O)[C@@H](C)O)C(C)C)[C@@H](C)O [CGEN-G6] (Ac-DLMETVNNLLTMMSTSNSAKD-NH2) | – | did not inhibit angiogenesis
